Like-named read-outs stand apart in the source and are kept apart here.
Experiments:
[1] = biological target: T1, h5-HT2C receptor (Homo sapiens, UniProt P28335); assay: biochemical; assay type: binding; conditions: for Ki: read-out: Inhibition of radioligand binding Ki ± sem, h5-HT2C [125I]DOI
T1 sequence (P28335 33-458): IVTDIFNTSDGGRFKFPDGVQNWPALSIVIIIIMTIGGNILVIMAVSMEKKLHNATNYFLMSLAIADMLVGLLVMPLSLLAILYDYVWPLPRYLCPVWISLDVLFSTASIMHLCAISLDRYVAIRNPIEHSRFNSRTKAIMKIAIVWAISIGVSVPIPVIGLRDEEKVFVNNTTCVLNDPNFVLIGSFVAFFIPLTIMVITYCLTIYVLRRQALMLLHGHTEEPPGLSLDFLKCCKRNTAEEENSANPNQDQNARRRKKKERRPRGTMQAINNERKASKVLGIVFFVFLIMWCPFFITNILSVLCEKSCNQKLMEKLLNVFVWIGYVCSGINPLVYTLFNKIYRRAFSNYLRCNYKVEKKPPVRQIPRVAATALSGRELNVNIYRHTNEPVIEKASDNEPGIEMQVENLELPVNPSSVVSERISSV

[2] = biological target: T2, hNET (Homo sapiens, UniProt P23975); assay: cell-based; assay type: cell-based; conditions: for IC50: read-out: Inhibition of [3H]neurotransmitter uptake IC50 ± sem, hNET [3H]NE
[3] = biological target: T3, hSERT (Homo sapiens, UniProt P31645); assay: Superfusion release of preloaded [3H]5-HT from HEK-hSERT cells; assay type: cell-based; conditions: for EC50: read-out: Drug-induced release of [3H]neurotransmitter EC50 ± sem, hSERT [3H]5-HT, superfusion, AUC; for releasing efficacy, hSERT [3H]5-HT: concentrations ranging from 1 nM to 100 µM
[4] = biological target: T4, h5-HT1A receptor (Homo sapiens, UniProt P08908); assay: Stimulation of [35S]GTPγS binding, HEK-h5-HT1A membranes; assay type: biochemical; conditions: for h5-HT1A Stimulation of [35S]GTPγS binding % maximum stimulation ± sem: normalized to the maximal stimulation by 5-HT; for EC50: read-out: h5-HT1A Stimulation of [35S]GTPγS binding EC50 ± sem
T4 sequence (P08908 1-422): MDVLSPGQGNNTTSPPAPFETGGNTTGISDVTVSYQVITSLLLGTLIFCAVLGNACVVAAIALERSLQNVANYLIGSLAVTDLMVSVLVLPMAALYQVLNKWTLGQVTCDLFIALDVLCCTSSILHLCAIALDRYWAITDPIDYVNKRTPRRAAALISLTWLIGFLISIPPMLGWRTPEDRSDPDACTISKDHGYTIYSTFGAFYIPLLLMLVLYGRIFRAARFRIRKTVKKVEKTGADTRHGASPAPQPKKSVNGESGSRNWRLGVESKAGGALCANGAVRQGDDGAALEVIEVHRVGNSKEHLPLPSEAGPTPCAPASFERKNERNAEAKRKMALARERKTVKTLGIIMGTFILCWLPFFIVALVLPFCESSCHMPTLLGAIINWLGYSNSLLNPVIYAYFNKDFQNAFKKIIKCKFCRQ

[5] = biological target: T3, hSERT; assay: Inhibition of [3H]5-HT uptake, intact HEK-hSERT cells; assay type: cell-based; conditions: for ratio of binding Ki to uptake IC50, hSERT: [125I]RTI-55 Ki / [3H]5-HT uptake IC50; for IC50: read-out: Inhibition of [3H]neurotransmitter uptake IC50 ± sem, hSERT [3H]5-HT, 20 nM [3H]5-HT, intact cells
[6] = biological target: T5, hVMAT2 (Homo sapiens, UniProt Q05940); assay: Inhibition of [3H]DHTB binding, HEK-hVMAT2 membranes; conditions: read-out: Inhibition of [3H]DHTB binding Ki ± sem, hVMAT2
[7] = biological target: T5, hVMAT2; assay: Superfusion release of preloaded [3H]NE from HEK-hVMAT2 cells; assay type: cell-based; conditions: for EC50: read-out: Drug-induced release of [3H]NE EC50 ± sem, hVMAT2, superfusion
[8] = biological target: hSigma1 receptor (Homo sapiens, UniProt Q99720); assay: [3H]; assay type: binding; conditions: read-out: Inhibition of [3H]pentazocine binding Ki ± sem, hSigma1
[9] = biological target: T2, hNET; assay: Superfusion release of preloaded [3H]NE from HEK-hNET cells; assay type: cell-based; conditions: for releasing efficacy, hNET [3H]NE: concentrations ranging from 10 nM to 100 µM; for EC50: read-out: Drug-induced release of [3H]neurotransmitter EC50 ± sem, hNET [3H]NE, superfusion, AUC; for % maximum release ± sem, hNET [3H]NE: relative to maximal AUC induced by METH (0.3 or 1 µM)
[10] = biological target: T4, h5-HT1A receptor; assay: [3H]8-OH-DPAT binding, HEK-h5-HT1A; conditions: read-out: Inhibition of radioligand binding Ki ± sem, h5-HT1A [3H]8OH-DPAT
[11] = biological target: T1, h5-HT2C receptor; assay: Inhibition of 5-HT-stimulated IP-1 formation; assay type: cell-based; conditions: 100 nM 5-HT; normalized to maximal inhibition by SB242084 (1 µM)
[12] = biological target: T6, h5-HT2A receptor (Homo sapiens, UniProt P28223); assay: [125I]DOI binding, HEK-h5-HT2A; conditions: read-out: Inhibition of radioligand binding Ki ± sem, h5-HT2A [125I]DOI
[13] = biological target: T7, hDAT (Homo sapiens, UniProt Q01959); assay: Superfusion release of preloaded [3H]DA from HEK-hDAT cells; assay type: cell-based; conditions: for releasing efficacy, hDAT [3H]DA: concentrations ranging from 1 nM to 100 µM; for EC50: read-out: Drug-induced release of [3H]neurotransmitter EC50 ± sem, hDAT [3H]DA, superfusion, AUC
[14] = biological target: T7, hDAT; assay: Inhibition of [125I]RTI-55 binding, HEK-hDAT membranes; conditions: read-out: Inhibition of [125I]RTI-55 binding Ki ± sem, hDAT; HEK-hDAT membranes
[15] = biological target: T6, h5-HT2A receptor; assay: Inhibition of 5-HT-stimulated IP-1 formation; assay type: cell-based; conditions: 100 nM 5-HT; for h5-HT2A Inhibition of 5-HT-stimulated IP-1 formation % maximum inhibition ± sem: normalized to maximal inhibition by ketanserin (10 µM); for IC50: read-out: h5-HT2A Inhibition of 5-HT-stimulated IP-1 formation IC50 ± sem
[16] = biological target: T5, hVMAT2; assay: Inhibition of [3H]5-HT uptake, HEK-hVMAT2 membrane preparation; assay type: biochemical; conditions: read-out: Inhibition of [3H]5-HT uptake IC50 ± sem, hVMAT2; 40 nM [3H]5-HT, 2 mM MgATP
[17] = biological target: T7, hDAT; assay: Inhibition of [3H]DA uptake, intact HEK-hDAT cells; assay type: cell-based; conditions: for ratio of binding Ki to uptake IC50, hDAT: [125I]RTI-55 Ki / [3H]DA uptake IC50; for IC50: read-out: Inhibition of [3H]neurotransmitter uptake IC50 ± sem, hDAT [3H]DA, 20 nM [3H]DA, intact cells; for fold less potent at other target proteins than at biogenic amine transporters: other target proteins vs biogenic amine transporters
[18] = biological target: T2, hNET; assay: biochemical; assay type: binding; conditions: read-out: Inhibition of [125I]RTI-55 binding Ki ± sem, hNET
[19] = blood from heart, periphery, and femoral veins; postmortem cases; ref [32];[33];[34]; cited from earlier work
[20] = [125I]RTI-55 Ki / [3H]NE uptake IC50

T3 sequence (P31645 whole entry, the tested form may be a part): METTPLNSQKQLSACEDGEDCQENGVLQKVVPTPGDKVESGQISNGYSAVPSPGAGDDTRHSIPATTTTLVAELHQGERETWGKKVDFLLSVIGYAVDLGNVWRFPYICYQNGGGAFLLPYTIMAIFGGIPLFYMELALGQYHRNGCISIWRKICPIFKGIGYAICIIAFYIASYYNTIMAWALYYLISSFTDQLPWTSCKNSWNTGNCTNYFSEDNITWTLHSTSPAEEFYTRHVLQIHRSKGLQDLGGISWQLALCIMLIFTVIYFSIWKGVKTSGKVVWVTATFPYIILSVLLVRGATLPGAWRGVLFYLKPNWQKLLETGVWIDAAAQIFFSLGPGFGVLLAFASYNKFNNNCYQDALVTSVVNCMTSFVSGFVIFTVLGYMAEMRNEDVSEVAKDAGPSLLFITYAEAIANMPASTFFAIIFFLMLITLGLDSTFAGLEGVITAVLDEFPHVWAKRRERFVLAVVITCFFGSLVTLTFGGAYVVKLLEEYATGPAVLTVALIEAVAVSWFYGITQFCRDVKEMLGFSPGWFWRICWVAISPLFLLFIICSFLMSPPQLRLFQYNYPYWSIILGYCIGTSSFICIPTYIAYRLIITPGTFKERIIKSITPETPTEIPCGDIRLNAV
hSigma1 receptor, sequence (Q99720 whole entry, the tested form may be a part): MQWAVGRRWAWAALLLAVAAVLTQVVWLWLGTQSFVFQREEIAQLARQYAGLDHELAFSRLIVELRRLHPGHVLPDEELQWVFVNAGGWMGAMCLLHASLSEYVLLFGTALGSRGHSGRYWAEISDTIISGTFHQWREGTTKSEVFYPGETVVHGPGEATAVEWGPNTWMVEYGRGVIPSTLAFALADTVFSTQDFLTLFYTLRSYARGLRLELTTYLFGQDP
T5 sequence (Q05940 whole entry, the tested form may be a part): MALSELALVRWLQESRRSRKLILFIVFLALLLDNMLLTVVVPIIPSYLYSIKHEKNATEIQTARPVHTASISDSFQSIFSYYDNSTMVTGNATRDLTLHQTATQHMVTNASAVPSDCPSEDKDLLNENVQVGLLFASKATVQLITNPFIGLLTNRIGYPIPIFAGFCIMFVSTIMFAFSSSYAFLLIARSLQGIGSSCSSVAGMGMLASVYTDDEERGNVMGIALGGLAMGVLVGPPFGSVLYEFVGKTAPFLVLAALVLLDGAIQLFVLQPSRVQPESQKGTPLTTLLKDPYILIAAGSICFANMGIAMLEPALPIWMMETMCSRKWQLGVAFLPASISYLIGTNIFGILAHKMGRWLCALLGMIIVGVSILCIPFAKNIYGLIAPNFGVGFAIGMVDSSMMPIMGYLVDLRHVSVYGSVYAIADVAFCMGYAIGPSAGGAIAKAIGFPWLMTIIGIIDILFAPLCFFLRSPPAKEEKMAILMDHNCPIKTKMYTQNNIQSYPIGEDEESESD
T2 sequence (P23975 whole entry, the tested form may be a part): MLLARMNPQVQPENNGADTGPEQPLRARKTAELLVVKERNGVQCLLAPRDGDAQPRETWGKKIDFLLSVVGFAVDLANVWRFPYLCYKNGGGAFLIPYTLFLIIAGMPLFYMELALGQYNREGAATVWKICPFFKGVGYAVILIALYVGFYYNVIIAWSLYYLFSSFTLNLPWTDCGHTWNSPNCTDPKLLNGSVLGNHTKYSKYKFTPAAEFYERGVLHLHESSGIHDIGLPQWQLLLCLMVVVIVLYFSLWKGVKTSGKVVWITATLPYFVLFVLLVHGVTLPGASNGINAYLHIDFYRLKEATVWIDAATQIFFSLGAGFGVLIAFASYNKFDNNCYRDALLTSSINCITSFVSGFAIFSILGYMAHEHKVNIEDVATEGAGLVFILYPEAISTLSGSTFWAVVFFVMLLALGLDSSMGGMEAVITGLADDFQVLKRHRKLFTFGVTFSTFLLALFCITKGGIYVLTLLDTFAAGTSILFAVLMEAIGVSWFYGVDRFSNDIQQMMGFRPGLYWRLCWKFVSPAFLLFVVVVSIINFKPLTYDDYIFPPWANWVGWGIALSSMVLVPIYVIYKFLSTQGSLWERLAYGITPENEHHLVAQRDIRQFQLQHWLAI
T7 sequence (Q01959 whole entry, the tested form may be a part): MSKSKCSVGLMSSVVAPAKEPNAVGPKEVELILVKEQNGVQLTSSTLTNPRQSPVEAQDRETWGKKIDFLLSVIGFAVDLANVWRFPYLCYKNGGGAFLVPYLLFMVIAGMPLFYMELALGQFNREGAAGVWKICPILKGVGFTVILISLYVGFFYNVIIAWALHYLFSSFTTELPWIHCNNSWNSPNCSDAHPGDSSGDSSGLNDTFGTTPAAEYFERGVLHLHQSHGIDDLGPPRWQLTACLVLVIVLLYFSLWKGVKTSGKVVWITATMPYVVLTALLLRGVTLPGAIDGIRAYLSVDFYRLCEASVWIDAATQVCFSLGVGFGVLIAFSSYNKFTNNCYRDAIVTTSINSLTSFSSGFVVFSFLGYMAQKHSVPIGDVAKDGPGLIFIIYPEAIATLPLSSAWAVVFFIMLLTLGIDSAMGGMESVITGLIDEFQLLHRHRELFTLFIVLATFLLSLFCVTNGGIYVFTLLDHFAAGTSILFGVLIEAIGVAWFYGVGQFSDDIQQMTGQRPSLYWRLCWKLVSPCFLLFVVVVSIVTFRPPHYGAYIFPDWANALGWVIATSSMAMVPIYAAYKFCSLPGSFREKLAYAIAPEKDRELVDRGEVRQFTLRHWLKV
T6 sequence (P28223 whole entry, the tested form may be a part): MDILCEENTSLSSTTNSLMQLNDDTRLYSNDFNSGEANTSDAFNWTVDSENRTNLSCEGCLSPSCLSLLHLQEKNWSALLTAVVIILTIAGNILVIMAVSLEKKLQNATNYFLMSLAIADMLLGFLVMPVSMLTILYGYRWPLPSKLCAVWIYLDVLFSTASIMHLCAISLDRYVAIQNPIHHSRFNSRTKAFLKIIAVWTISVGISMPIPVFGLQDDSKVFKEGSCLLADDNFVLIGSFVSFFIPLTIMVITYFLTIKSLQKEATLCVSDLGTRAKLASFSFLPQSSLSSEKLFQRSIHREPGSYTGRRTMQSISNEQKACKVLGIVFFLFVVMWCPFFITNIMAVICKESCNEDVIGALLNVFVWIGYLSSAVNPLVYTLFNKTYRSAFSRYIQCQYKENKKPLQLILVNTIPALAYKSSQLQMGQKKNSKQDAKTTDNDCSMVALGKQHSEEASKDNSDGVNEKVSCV

COc1cc(CC(C)N)c(OC)cc1I (racemic) [[^125I]DOI, (±)-1-(2,5,-dimethoxy-4-iodophenyl)-2-aminopropane, reference compound]
Kd ([1]; read-out: Kd of radioligand, HEK-H5HT2C): 4.18 ± 0.46 nM

CCC(NC)C(=O)c1ccc2c(c1)OCO2 (stereo not shown) [Butylone]
ratio of binding Ki to uptake IC50, hNET [2, 20]: 7.5 | IC50 ([2]; 20 nM [3H]NE, intact cells): 1060 ± 240 nM | % maximum release ± sem, hSERT [3H]5-HT [3]: 30.1 ± 6.5% | EC50 [3]: 3.1 ± 1.4 µM | h5-HT1A Stimulation of [35S]GTPγS binding % maximum stimulation ± sem [4]: 52 ± 13% | EC50 [4]: 440 ± 110 µM | ratio of binding Ki to uptake IC50, hSERT [5]: 5.3 | IC50 [5]: 1970 ± 430 nM | Ki [6]: 730 ± 110 µM | Ki [1]: 41 ± 12 µM | Release of [3H]NE % maximum release ± sem or range, hVMAT2 [7]: 17.4 ± 1.1% | EC50 [7]: 4.4 ± 0.52 µM | Ki [8]: 7.9 ± 1.8 µM | releasing efficacy, hNET [3H]NE [9]: minimal releasing efficacy | EC50 [9]: > 100 µM | % maximum release ± sem, hNET [3H]NE [9]: 3.6 ± 2.2% | Ki [10]: > 96 µM | h5-HT2C Inhibition of 5-HT-stimulated IP-1 formation % maximum inhibition ± sem [11]: 11 ± 12% | Ki [12]: 118 ± 17 µM | % maximum release ± sem, hDAT [3H]DA [13]: 5.4 ± 3.8% | releasing efficacy, hDAT [3H]DA [13]: minimal releasing efficacy | EC50 [13]: > 10 µM | Ki [14]: 1730 ± 270 nM | h5-HT2A Inhibition of 5-HT-stimulated IP-1 formation % maximum inhibition ± sem [15]: 95.9 ± 4.1% | IC50 [15]: 410 ± 110 µM | IC50 [16]: 162 ± 55 µM | ratio of binding Ki to uptake IC50, hDAT [17]: 8.2 | IC50 [17]: 211 ± 54 nM | Ki ([18]; HEK-hNET membranes): 7980 ± 550 nM

CCCC(C(=O)c1ccc2c(c1)OCO2)N1CCCC1 (stereo not shown) [MDPV, 3,4-methylenedioxypyrovalerone]
ratio of binding Ki to uptake IC50, hNET [2, 20]: less than six | IC50 ([2]; 20 nM [3H]NE, intact cells): 18.8 ± 2.1 nM | releasing efficacy, hSERT [3H]5-HT [3]: minimal releasing efficacy | EC50 [3]: > 100 µM | % maximum release ± sem, hSERT [3H]5-HT ([3]; relative to maximal AUC induced by PCA (10 µM)): 6.9 ± 2.1% | h5-HT1A Stimulation of [35S]GTPγS binding % maximum stimulation ± sem [4]: 69.0 ± 6.7% | EC50 [4]: 60.8 ± 8.4 µM | postmortem blood concentration [19]: 0.06 to 3.3 mg/L | postmortem blood concentration (molar) [19]: 0.25 to 14 µM | ratio of binding Ki to uptake IC50, hSERT [5]: less than six | IC50 [5]: 1380 nM | Ki [6]: 990 ± 270 µM | Ki [1]: 107 ± 30 µM | Release of [3H]NE % maximum release ± sem or range, hVMAT2 [7]: 35.8 ± 9.6% | EC50 [7]: 148 ± 84 µM | Ki [8]: 4.4 ± 1.7 µM | releasing efficacy, hNET [3H]NE [9]: minimal releasing efficacy | EC50 [9]: > 100 µM | % maximum release ± sem, hNET [3H]NE [9]: 18 ± 15% | Ki [10]: 14.8 ± 3.8 µM | h5-HT2C Inhibition of 5-HT-stimulated IP-1 formation % maximum inhibition ± sem [11]: 24.5 ± 8.4% | Ki [12]: 207 ± 29 µM | % maximum release ± sem, hDAT [3H]DA [13]: 4.8 ± 5.3% | releasing efficacy, hDAT [3H]DA [13]: minimal releasing efficacy | EC50 [13]: > 100 µM | Ki [14]: 19.4 ± 3.2 nM | h5-HT2A Inhibition of 5-HT-stimulated IP-1 formation % maximum inhibition ± sem [15]: 67.7 ± 5.4% | IC50 [15]: 270 ± 86 µM | IC50 [16]: > 100 µM | ratio of binding Ki to uptake IC50, hDAT [17]: less than six | fold less potent at other target proteins than at biogenic amine transporters [17]: 60–350 fold | IC50 [17]: 12.6 ± 2.4 nM | Ki ([18]; HEK-hNET membranes): 107 ± 34 nM

CCCC(C(=O)c1ccc2ccccc2c1)N1CCCC1 (stereo not shown) [Naphyrone, naphthylpyrovalerone]
ratio of binding Ki to uptake IC50, hNET [2]: less than six | IC50 [2]: 35 nM | % maximum release ± sem, hSERT [3H]5-HT [3]: 20.1 ± 9.3% | releasing efficacy, hSERT [3H]5-HT [3]: minimal releasing efficacy | EC50 [3]: 7.5 ± 3 µM | h5-HT1A Stimulation of [35S]GTPγS binding % maximum stimulation ± sem [4]: 80 ± 15% | EC50 [4]: 116 ± 30 µM | ratio of binding Ki to uptake IC50, hSERT [5]: less than six | IC50 [5]: 59.3 ± 9.7 nM | Ki [6]: 119 ± 20 µM | Ki [1]: 23.2 µM | EC50 [7]: > 100 µM | Release of [3H]NE % maximum release ± sem or range, hVMAT2 ([7]; relative to maximal AUC induced by METH (100 µM or 1 mM)): 34 ± 14% | Release of [3H]NE % maximum release ± sem or range, hVMAT2 ([7]; relative to maximal AUC induced by METH (100 µM or 1 mM), listed as naphyrone): less than 35% | Ki [8]: 0.509 ± 0.052 µM | releasing efficacy, hNET [3H]NE [9]: minimal releasing efficacy | EC50 [9]: > 100 µM | % maximum release ± sem, hNET [3H]NE [9]: 36 ± 18% | Ki [10]: 4.64 ± 0.6 µM | h5-HT2C Inhibition of 5-HT-stimulated IP-1 formation % maximum inhibition ± sem [11]: 32 ± 14% | Ki [12]: 17.7 ± 2.6 µM | releasing efficacy, hDAT [3H]DA [13]: minimal releasing efficacy | EC50 [13]: > 100 µM | % maximum release ± sem, hDAT [3H]DA ([13]; relative to maximal AUC induced by METH (1 or 10 µM)): < 6% | Ki [14]: 10.8 ± 0.76 nM | h5-HT2A Inhibition of 5-HT-stimulated IP-1 formation % maximum inhibition ± sem [15]: 98.18 ± 0.94% | IC50 [15]: 65 ± 11 µM | IC50 [16]: 21.4 ± 7.1 µM | ratio of binding Ki to uptake IC50, hDAT [17]: less than six | fold less potent at other target proteins than at biogenic amine transporters [17]: 60–350 fold | IC50 [17]: 12.6 ± 3.1 nM | Ki [18]: 59 nM

CC(N)Cc1ccc(Cl)cc1 (stereo not shown) [PCA, p-chloroamphetamine, reference compound]
% maximum release ± sem, hSERT [3H]5-HT [3]: 106.4 ± 2.0% | EC50 [3]: 0.8 ± 0.27 µM
